In patent publication US7875647B2, “Heteroaryl-pyrazole derivatives as cannabinoid CB1 receptor antagonists” (Green Cross Corporation, priority 2006, dated 2011):

What follows are compounds tested against T1, Cannabinoid-1 receptor (CB1R) (Rattus norvegicus, UniProt P20272) (assay: Cannabinoid-1 receptor (CB1R) binding affinity assay ([3H]CP-55940, rat CB-1 receptor binding protocol)). Conditions: IC50(nM), brain tissue of SD rats, [3H]CP-55940, 30° C. 60 min.
T1 construct: The tissue obtained from the brain of SD rats was homogenized; from tissue; host or cells: brain of SD rats (membrane pellet of the homogenate)
T1 sequence (P20272 whole entry): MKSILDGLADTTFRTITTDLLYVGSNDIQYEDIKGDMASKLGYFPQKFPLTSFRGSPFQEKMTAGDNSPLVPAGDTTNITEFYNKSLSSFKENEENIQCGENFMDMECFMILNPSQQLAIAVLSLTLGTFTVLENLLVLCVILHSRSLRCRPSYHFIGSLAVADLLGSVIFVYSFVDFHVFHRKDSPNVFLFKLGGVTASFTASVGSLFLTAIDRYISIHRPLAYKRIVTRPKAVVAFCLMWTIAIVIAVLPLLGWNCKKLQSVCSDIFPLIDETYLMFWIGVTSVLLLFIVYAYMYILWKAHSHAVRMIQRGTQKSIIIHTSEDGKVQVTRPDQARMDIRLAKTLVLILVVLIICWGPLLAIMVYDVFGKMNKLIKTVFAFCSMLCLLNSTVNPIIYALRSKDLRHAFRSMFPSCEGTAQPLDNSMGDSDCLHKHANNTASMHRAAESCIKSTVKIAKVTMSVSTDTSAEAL

| SMILES | IC50 [nM] |
| --- | --- |
| CCCCC(C)c1nnc(-c2nn(-c3ccc(Cl)cc3Cl)c(-c3ccc(Br)cc3)c2C)s1 (stereo not shown) [Example 380, 2-(5-(4-Bromophenyl)-1-(2,4-dichlorophenyl)-4-methyl-1H-pyrazol-3-yl)-5-(hexan-2-yl)-1,3,4-thiadiazole] | 11.5 |
| Cc1c(-c2nnc(C3CC=CC3)s2)nn(-c2ccc(Cl)cc2Cl)c1-c1ccc(Cl)cc1 [Example 384, 2-(5-(4-chlorophenyl)-1-(2,4-dichlorophenyl)-4-methyl-1H-pyrazol-3-yl)-5-(cyclopent-3-enyl)-1,3,4-thiadiazole] | 20.2 |

Same assay, conditions: brain tissue of SD rats, [3H]CP-55940, 30° C. 60 min; read-out: IC50

| SMILES | IC50 [nM] |
| --- | --- |
| Cc1c(-c2nnc(CC3CC3)s2)nn(-c2ccc(Cl)cc2Cl)c1-c1ccc(Cl)cc1 [Example 370, 2-(5-(4-Chlorophenyl)-1-(2,4-dichlorophenyl)-4-methyl-1H-pyrazol-3-yl)-5-(cyclopropylmethyl)-1,3,4-thiadiazole] | 67.7 |
| Cc1c(-c2nnc(C(C)(C)C)s2)nn(-c2ccc(Cl)cc2Cl)c1-c1ccc(Cl)cc1 [Example 372, 2-tert-Butyl-5-(5-(4-chlorophenyl)-1-(2,4-dichlorophenyl)-4-methyl-1H-pyrazol-3-yl)-1,3,4-thiadiazole] | 25.2 |
| Cc1c(-c2nnc(C3CCCCC3)s2)nn(-c2ccc(Cl)cc2Cl)c1-c1ccc(Br)cc1 [Example 373, 2-(5-(4-Bromophenyl)-1-(2,4-dichlorophenyl)-4-methyl-1H-pyrazol-3-yl)-5-cyclohexyl-1,3,4-thiadiazole] | 20.5 |
| CCc1c(-c2nnc(C3CCCCC3)s2)nn(-c2ccc(Cl)cc2Cl)c1-c1ccc(Br)cc1 [Example 374, 2-(5-(4-Bromophenyl)-1-(2,4-dichlorophenyl)-4-ethyl-1H-pyrazol-3-yl)-5-cyclohexyl-1,3,4-thiadiazole] | 30.5 |
| CCc1c(-c2nnc(C3CCC3)s2)nn(-c2ccc(Cl)cc2Cl)c1-c1ccc(Br)cc1 [Example 375, 2-(5-(4-Bromophenyl)-1-(2,4-dichlorophenyl)-4-ethyl-1H-pyrazol-3-yl)-5-cyclobutyl-1,3,4-thiadiazole] | 18.5 |
| CCc1c(-c2nnc(C3CCCC3)s2)nn(-c2ccc(Cl)cc2Cl)c1-c1ccc(Br)cc1 [Example 376, 2-(5-(4-Bromophenyl)-1-(2,4-dichlorophenyl)-4-ethyl-1H-pyrazol-3-yl)-5-cyclopentyl-1,3,4-thiadiazole] | 18.7 |
| CCc1c(-c2nnc(C(C)(C)C)s2)nn(-c2ccc(Cl)cc2Cl)c1-c1ccc(Br)cc1 [Example 377, 2-(5-(4-Bromophenyl)-1-(2,4-dichlorophenyl)-4-ethyl-1H-pyrazol-3-yl)-5-tert-butyl-1,3,4-thiadiazole] | 9.57 |
| Cc1c(-c2nnc(C3CCCCCC3)s2)nn(-c2ccc(Cl)cc2Cl)c1-c1ccc(Br)cc1 [Example 378, 2-(5-(4-Bromophenyl)-1-(2,4-dichlorophenyl)-4-methyl-1H-pyrazol-3-yl)-5-cycloheptyl-1,3,4-thiadiazole] | 31 |
| CCCCC(C)c1nnc(-c2nn(-c3ccc(Cl)cc3Cl)c(-c3ccc(Cl)cc3)c2C)s1 (stereo not shown) [Example 379, 2-(5-(4-Chlorophenyl)-1-(2,4-dichlorophenyl)-4-methyl-1H-pyrazol-3-yl)-5-(hexan-2-yl)-1,3,4-thiadiazole] | 16.9 |
| Cc1c(-c2nnc(C(C)c3ccccc3)s2)nn(-c2ccc(Cl)cc2Cl)c1-c1ccc(Cl)cc1 (stereo not shown) [Example 381, 2-(5-(4-chlorophenyl)-1-(2,4-dichlorophenyl)-4-methyl-1H-pyrazol-3-yl)-5-(1-phenylethyl)-1,3,4-thiadiazole] | 11.2 |
| Cc1c(-c2nnc(NC3CCCCC3)s2)nn(-c2ccc(Cl)cc2Cl)c1-c1ccc(Cl)cc1 [Example 382, 5-(5-(4-chlorophenyl)-1-(2,4-dichlorophenyl)-4-methyl-1H-pyrazol-3-yl)-N-cyclohexyl-1,3,4-thiadiazol-2-amine] | 60.3 |
| Cc1c(-c2nnc(C3CC=CCC3)s2)nn(-c2ccc(Cl)cc2Cl)c1-c1ccc(Cl)cc1 (stereo not shown) [Example 383, 2-(5-(4-chlorophenyl)-1-(2,4-dichlorophenyl)-4-methyl-1H-pyrazol-3-yl)-5-(cyclohex-3-enyl)-1,3,4-thiadiazole] | 85.3 |
| Cc1c(-c2nnc(C(C)Cc3ccccc3)s2)nn(-c2ccc(Cl)cc2Cl)c1-c1ccc(Cl)cc1 (stereo not shown) [Example 385, 2-(5-(4-chlorophenyl)-1-(2,4-dichlorophenyl)-4-methyl-1H-pyrazol-3-yl)-5-(1-phenylpropan-2-yl)-1,3,4-thiadiazole] | 33.6 |
| CCc1c(-c2nnc(CC3CCCCC3)s2)nn(-c2ccc(Cl)cc2Cl)c1-c1ccc(Br)cc1 [Example 386, 2-(5-(4-bromophenyl)-1-(2,4-dichlorophenyl)-4-ethyl-1H-pyrazol-3-yl)-5-(cyclohexylmethyl)-1,3,4-thiadiazole] | 13.2 |
| Cc1c(-c2nnc(CC3CCCCC3)s2)nn(-c2ccc(Cl)cc2Cl)c1-c1ccc(Br)cc1 [Example 387, 2-(5-(4-bromophenyl)-1-(2,4-dichlorophenyl)-4-methyl-1H-pyrazol-3-yl)-5-(cyclohexylmethyl)-1,3,4-thiadiazole] | 24.3 |
| CCCCC(C)c1nnc(-c2nn(-c3ccc(Cl)cc3Cl)c(-c3ccc(Br)cc3)c2CC)s1 (stereo not shown) [Example 388, 2-(5-(4-bromophenyl)-1-(2,4-dichlorophenyl)-4-ethyl-1H-pyrazol-3-yl)-5-(hexan-2-yl)-1,3,4-thiadiazole] | 7.01 |

| SMILES | IC50 [nM] |
| --- | --- |
| CCc1c(-c2nnc(C(C)(C)C)s2)nn(-c2ccc(Cl)cc2Cl)c1-c1ccc(Cl)cc1 [Example 389, 2-tert-butyl-5-(5-(4-chlorophenyl)-1-(2,4-dichlorophenyl)-4-ethyl-1H-pyrazol-3-yl)-1,3,4-thiadiazole] | 11.1 |
| CCc1c(-c2nnc(C3CCCCC3)s2)nn(-c2ccc(Cl)cc2Cl)c1-c1ccc(Cl)cc1 [Example 390, 2-(5-(4-chlorophenyl)-1-(2,4-dichlorophenyl)-4-ethyl-1H-pyrazol-3-yl)-5-cyclohexyl-1,3,4-thiadiazole] | 18.2 |
| Cc1c(-c2nnc(C(C)C3CCCC3)s2)nn(-c2ccc(Cl)cc2Cl)c1-c1ccc(Cl)cc1 (stereo not shown) [Example 391, 2-(5-(4-chlorophenyl)-1-(2,4-dichlorophenyl)-4-methyl-1H-pyrazol-3-yl)-5-(1-cyclopentylethyl)-1,3,4-thiadiazole] | 14.3 |
| Cc1c(-c2nnc(C(C)C3CCCCC3)s2)nn(-c2ccc(Cl)cc2Cl)c1-c1ccc(Cl)cc1 (stereo not shown) [Example 392, 2-(5-(4-chlorophenyl)-1-(2,4-dichlorophenyl)-4-methyl-1H-pyrazol-3-yl)-5-(1-cyclohexylethyl)-1,3,4-thiadiazole] | 46.7 |
| Cc1c(-c2nnc(C(C)(C)C3CCCC3)s2)nn(-c2ccc(Cl)cc2Cl)c1-c1ccc(Cl)cc1 [Example 393, 2-(5-(4-chlorophenyl)-1-(2,4-dichlorophenyl)-4-methyl-1H-pyrazol-3-yl)-5-(2-cyclopentylpropan-2-yl)-1,3,4-thiadiazole] | 19.5 |
| Cc1c(-c2nnc(C(C)(C)C3CCCCC3)s2)nn(-c2ccc(Cl)cc2Cl)c1-c1ccc(Cl)cc1 [Example 394, 2-(5-(4-chlorophenyl)-1-(2,4-dichlorophenyl)-4-methyl-1H-pyrazol-3-yl)-5-(2-cyclohexylpropan-2-yl)-1,3,4-thiadiazole] | 13.9 |
| CCc1c(-c2nnc(C3CCC3)s2)nn(-c2ccc(Cl)cc2Cl)c1-c1ccc(Cl)cc1 [Example 395, 2-(5-(4-chlorophenyl)-1-(2,4-dichlorophenyl)-4-ethyl-1H-pyrazol-3-yl)-5-cyclobutyl-1,3,4-thiadiazole] | 21.8 |
| CCc1c(-c2nnc(C3CCCC3)s2)nn(-c2ccc(Cl)cc2Cl)c1-c1ccc(Cl)cc1 [Example 396, 2-(5-(4-chlorophenyl)-1-(2,4-dichlorophenyl)-4-ethyl-1H-pyrazol-3-yl)-5-cyclopentyl-1,3,4-thiadiazole] | 9.94 |
| CCc1c(-c2nnc(C3CCCCCC3)s2)nn(-c2ccc(Cl)cc2Cl)c1-c1ccc(Cl)cc1 [Example 397, 2-(5-(4-chlorophenyl)-1-(2,4-dichlorophenyl)-4-ethyl-1H-pyrazol-3-yl)-5-cycloheptyl-1,3,4-thiadiazole] | 9.42 |
| CCc1c(-c2nnc(C(C)CC)s2)nn(-c2ccc(Cl)cc2Cl)c1-c1ccc(Cl)cc1 (stereo not shown) [Example 398, 2-sec-butyl-5-(5-(4-chlorophenyl)-1-(2,4-dichlorophenyl)-4-ethyl-1H-pyrazol-3-yl)-1,3,4-thiadiazole] | 7.99 |
| CCc1c(-c2nnc(C(C)CC)s2)nn(-c2ccc(Cl)cc2Cl)c1-c1ccc(Br)cc1 (stereo not shown) [Example 399, 2-(5-(4-bromophenyl)-1-(2,4-dichlorophenyl)-4-ethyl-1H-pyrazol-3-yl)-5-sec-butyl-1,3,4-thiadiazole] | 7.63 |
| CCc1c(-c2nnc(C3CCCCCC3)s2)nn(-c2ccc(Cl)cc2Cl)c1-c1ccc(Br)cc1 [Example 400, 2-(5-(4-bromophenyl)-1-(2,4-dichlorophenyl)-4-ethyl-1H-pyrazol-3-yl)-5-cycloheptyl-1,3,4-thiadiazole] | 5.26 |
| Cc1c(-c2nnc(C(C)(C)c3ccccc3)s2)nn(-c2ccc(Cl)cc2Cl)c1-c1ccc(Cl)cc1 [Example 401, 2-(5-(4-chlorophenyl)-1-(2,4-dichlorophenyl)-4-methyl-1H-pyrazol-3-yl)-5-(2-phenylpropan-2-yl)-1,3,4-thiadiazole] | 6.9 |
| Cc1c(-c2nnc(C(C)(C)c3ccc(Cl)cc3)s2)nn(-c2ccc(Cl)cc2Cl)c1-c1ccc(Cl)cc1 [Example 402, 2-(5-(4-chlorophenyl)-1-(2,4-dichlorophenyl)-4-methyl-1H-pyrazol-3-yl)-5-(2-(4-chlorophenyl)propan-2-yl)-1,3,4-thiadiazole] | 5.34 |
| CCC(C)c1nnc(-c2nn(-c3ccc(Cl)cc3Cl)c(-c3ccc(Br)cc3)c2C)s1 (stereo not shown) [Example 403, 2-(5-(4-bromophenyl)-1-(2,4-dichlorophenyl)-4-methyl-1H-pyrazol-3-yl)-5-sec-butyl-1,3,4-thiadiazole] | 10.7 |
| CCc1c(-c2nnc(C(C)(C)c3ccccc3)s2)nn(-c2ccc(Cl)cc2Cl)c1-c1ccc(Br)cc1 [Example 404, 2-(5-(4-bromophenyl)-1-(2,4-dichlorophenyl)-4-ethyl-1H-pyrazol-3-yl)-5-(2-phenylpropan-2-yl)-1,3,4-thiadiazole] | 5.15 |
